What is called melting point is the temperature of the solid-liquid transition.

Each structure is given as a SMILES string. In brackets after ≈: the same amount, converted by molar mass.

The subject of data set [1] is cyprid larvae of the barnacle Balanus albicostatus. Also noted: method as in Chen et al., [2011]. Conditions: ref Chen et al., [2011]; cited from earlier work.
Data set [2] concerns mouse melanoma (B16 2F2) cell line. Also noted: method as in Hata et al., [2002]. Conditions: ref Hata et al., [2002], read-out: anticancer effect IC50, B16 2F2; cited from earlier work.
The subject of data set [3] is T47D (human breast cancer). Set-up: method as in Boryczka et al. ([2013a], [b]). Conditions: Neg = negative in the concentration used, ref Boryczka et al. ([2013a], [b]); cited from earlier work.
Data set [4] concerns CCRF/CEM (human leukemia). Set-up: method as in Boryczka et al. ([2013a], [b]). Conditions: Neg = negative in the concentration used, ref Boryczka et al. ([2013a], [b]); cited from earlier work.
The test system of data set [5] is SW707 (human colorectal). Set-up: method as in Boryczka et al. ([2013a], [b]). Conditions: Neg = negative in the concentration used, ref Boryczka et al. ([2013a], [b]); cited from earlier work.
Data set [6] has as its system P388 (mouse leukemia). Also noted: method as in Boryczka et al. ([2013a], [b]). Conditions: murine P388; Neg = negative in the concentration used; ref Boryczka et al. ([2013a], [b]); cited from earlier work.
For data set [7], the system named is BALB3T3 normal mouse fibroblasts. Set-up: method as in Boryczka et al. ([2013a], [b]). Conditions: murine BALB3T3 normal fibroblasts; Neg = negative in the concentration used; ref Boryczka et al. ([2013a], [b]); cited from earlier work.
Data set [8] concerns T47D (human breast cancer). Description: Antiproliferative assay in vitro (SRB), T47D. It is filed as cell-based. Conditions: human T47D; 96 h exposure; 1 to 100 µg/mL; Neg = negative in the concentration used; read-out: Cytotoxic activity IC50, T47D. The procedure: (§1) The tested cell lines were obtained from the American Type Culture Collection (Rockville, Maryland, USA) and maintained at the Cell Culture Collection of the Institute of Immunology and Experimental Therapy (Wrocław, Poland). The cells were seeded in 96-well plates (Sarstedt, USA) at a density of 10^4 cells per well in 100 µL of culture medium overnight. […] The normal mouse fibroblasts BALB3T3 was cultured in Dulbecco’s modified Eagle’s medium (Sigma-Aldrich, Chemie GmbH, Steinheim, Germany) supplemented with 2 mM glutamine (Sigma-Aldrich, Chemie GmbH, Steinheim, Germany) and 10 % fetal calf serum FBS (Sigma-Aldrich, Chemie GmbH, Steinheim, Germany). The all culture media were supplemented with streptomycin (100 µg/mL) and penicillin (100 U/mL) (both antibiotics from Polfa, Tarchomin, Poland). The cell cultures were maintained at 37 °C in humid atmosphere saturated with 5 % CO2. This technique as first was described by Skehan et al. in [1990]. The SRB assay was performed after 96 h exposure of the cultured cells to varying concentrations (ranging from 1 to 100 µg/mL) of the tested substances. The reported derivatives as well as betulin 1 were dissolved in 10 % dimethyl sulfoxide (DMSO) to concentration of 1 mg/mL, and next diluted in culture medium to reach the required concentrations. […] The cells fastened to the plastic were fixed mildly layering cold 50 % TCA (trichloroacetic acid, Aldrich-Chemie, Germany) on the top of the culture medium in each well. The plates were incubated at 4 °C for 1 h and then washed five times with tap water. The cells fixed with TCA were stained with 0.4 % sulforhodamine B (SRB, Sigma, Germany) dissolved in 1 % acetic acid (POCH, Gliwice, Poland) for 30 min. The unbound dye was removed by rinsing four times with 1 % acetic acid. The protein-bound dye was extracted with 10 mM unbuffered tris base (POCH, Gliwice, Poland) and then determined the optical density at 540 nm in a computer-interfaced, 96-well microtiter plate reader Multiscan RC photometer (Labsystems, Helsinki, Finland). The compounds in given concentration were examined in triplicates in each experiment which was repeated 3–5 times. The results of cytotoxic activity in vitro were expressed as an IC50 in µg/mL.

The subject of data set [9] is CCRF/CEM (human leukemia). As to the kind of experiment: Antiproliferative assay in vitro (MTT), CCRF/CEM. It is filed as cell-based. Conditions: human CCRF/CEM; 96 h exposure; 1 to 100 µg/mL; Neg = negative in the concentration used; read-out: Cytotoxic activity IC50, CCRF/CEM. Here is the method: (§2) The tested cell lines were obtained from the American Type Culture Collection (Rockville, Maryland, USA) and maintained at the Cell Culture Collection of the Institute of Immunology and Experimental Therapy (Wrocław, Poland). The cells were seeded in 96-well plates (Sarstedt, USA) at a density of 10^4 cells per well in 100 µL of culture medium overnight. […] The normal mouse fibroblasts BALB3T3 was cultured in Dulbecco’s modified Eagle’s medium (Sigma-Aldrich, Chemie GmbH, Steinheim, Germany) supplemented with 2 mM glutamine (Sigma-Aldrich, Chemie GmbH, Steinheim, Germany) and 10 % fetal calf serum FBS (Sigma-Aldrich, Chemie GmbH, Steinheim, Germany). The all culture media were supplemented with streptomycin (100 µg/mL) and penicillin (100 U/mL) (both antibiotics from Polfa, Tarchomin, Poland). The cell cultures were maintained at 37 °C in humid atmosphere saturated with 5 % CO2. The MTT assay was used for the cytotoxicity screening against leukemia cells growing in suspension culture. This assay was performed after 96 h of the leukemia cells to varying concentrations (ranging from 1 to 100 µg/mL) of the tested substances. The derivatives of betulin were dissolved in 10 % DMSO to concentration of 1 mg/mL, and next diluted in culture medium to reach the required concentrations. […] During the last 3–4 h of incubation 20 µl of MTT solution were added to each well (MTT: 3-(4,5-dimethylthiazol-2-yl)-2,5-diphenyl tetrazolium bromide; stock solution: 5 mg/mL). The pale yellow MTT is reduced to a navy blue formazan in the mitochondria of living cells. At the end of incubation time, 80 µL of the lysing mixture was added to each well (lysing mixture: 225 mL dimethylformamide, 67.5 g sodium dodecyl sulfate and 275 mL of distilled water). After 24 h are formed the crystals of formazan, which are insoluble in aqueous solutions. The formazan crystals had been dissolved. The optical densities were read on a Multiskan RC photometer at 570 nm wavelength. The compounds in given concentration were examined in triplicates in each experiment which was repeated 3–5 times. The results of cytotoxic activity in vitro were expressed as an IC50 in µg/mL.

Data set [10] concerns SW707 (human colorectal). As to the kind of experiment: Antiproliferative assay in vitro (SRB), SW707. It is filed as cell-based. Conditions: human SW707; 96 h exposure; 1 to 100 µg/mL; Neg = negative in the concentration used; read-out: Cytotoxic activity IC50, SW707. The procedure: as §1
For data set [11], the system named is P388 (mouse leukemia). As to the kind of experiment: Antiproliferative assay in vitro (MTT), P388. Conditions: Mus musculus; murine P388; 96 h exposure; 1 to 100 µg/mL; Neg = negative in the concentration used; read-out: Cytotoxic activity IC50, P388. The data set is classed as cell-based. The procedure:
as §2

Data set [12] in a line: Antiproliferative assay in vitro (SRB), BALB3T3. The data set is classed as cell-based, mouse. Conditions: mouse; murine BALB3T3 normal fibroblasts; 96 h exposure; 1 to 100 µg/mL; Neg = negative in the concentration used; read-out: Cytotoxic activity IC50, BALB3T3. The procedure:
as §1

Data set [13] concerns HL-60 (human promyelocytic leukemia). Description: Antiproliferative assay in vitro (MTT), HL-60. Conditions: for IC50: Homo sapiens, HL-60 cancer cell line, 96 h exposure, read-out: Cytotoxic activity IC50, HL-60. It is filed as cell-based. Here is the method:
as §2

As to `C=C(C)[C@@H]1CC[C@]2(CO)CC[C@]3(C)[C@H](CC[C@@H]4[C@@]5(C)CCC(=O)C(C)(C)[C@@H]5CC[C@]43C)[C@@H]12` [Betulone 2, lup-20(29)-en-28-ol-3-one], the “antifouling activity EC50” value in data set [1] is given as 8.73 µg/mL. Also, the IC50 in [2] is 29.3 µM.

On to `C=C(C)[C@@H]1CC[C@]2(COC(=O)C#Cc3ccccc3)CC[C@]3(C)C(CCC4[C@@]5(C)CC[C@H](O)C(C)(C)C5CC[C@]43C)C12` (stereo partly shown) [Compound 7], for which the “Cytotoxic activity IC50, T47D” value in [3] is listed as “Neg”. Also, the “Cytotoxic activity IC50, CCRF/CEM” value in data set [4] was 49.0 ± 9.8 µg/mL. Further, the “Cytotoxic activity IC50, SW707” value in the data set on SW707 (human colorectal) [5] is “Neg”. Besides, the “Cytotoxic activity IC50, P388” value in the data set on P388 (mouse leukemia) [6] was “Neg”. In addition, the “Cytotoxic activity IC50, BALB3T3” value in data set [7] is “Neg”.

With `C=CC(=O)OC[C@]12CC[C@@H](C(=C)C)C1C1CCC3[C@@]4(C)CC[C@H](O)C(C)(C)C4CC[C@@]3(C)[C@]1(C)CC2` (stereo partly shown) [Compound 4, 28-O-(2-Propenoyl)betulin], the melting point lay within 117 to 121 °C. Besides, in data set [8], the IC50 stood at 7.1 ± 2.7 µg/mL (≈ 14.3 µM). Also, the IC50 in data set [9] came out at 19.6 ± 9.5 µg/mL (≈ 39.5 µM). In addition, the IC50 with SW707 (human colorectal) [10] is 29.6 ± 4.2 µg/mL (≈ 59.6 µM). The IC50 with P388 (mouse leukemia) [11] came to 9.9 ± 5.9 µg/mL (≈ 19.9 µM). The IC50 at 96 h in data set [12] is 24.3 ± 6.9 µg/mL (≈ 48.9 µM). Also, the IC50 in data set [13] amounted to 18.8 ± 4.8 µg/mL (≈ 37.8 µM).

`C#CC(=O)OC[C@]12CC[C@@H](C(=C)C)C1C1CCC3[C@@]4(C)CC[C@H](O)C(C)(C)C4CC[C@@]3(C)[C@]1(C)CC2` (stereo partly shown) [Compound 5, 28-O-propynoylbetulin]: the IC50 in data set [13] stood at 0.3 ± 0.004 µg/mL (≈ 0.606 µM). The “fold potent than betulin 1 against HL-60” value in data set [13] (relative to betulin 1, HL-60) is recorded as 24 fold. Further, in data set [3], the “Cytotoxic activity IC50, T47D” value was 9.1 ± 1.9 µg/mL. In [4], the “Cytotoxic activity IC50, CCRF/CEM” value is 0.02 ± 0.001 µg/mL. Also, the “Cytotoxic activity IC50, SW707” value with SW707 (human colorectal) [5] is 14.9 ± 3.3 µg/mL. Further, the “Cytotoxic activity IC50, P388” value with P388 (mouse leukemia) [6] is 0.4 ± 0.1 µg/mL. For the same compound, the “Cytotoxic activity IC50, BALB3T3” value in [7] was 0.3 ± 0.05 µg/mL.

As for `C=C(C)[C@@H]1CC[C@]2(COC(=O)C#CC)CC[C@]3(C)C(CCC4[C@@]5(C)CC[C@H](O)C(C)(C)C5CC[C@]43C)C12` (stereo partly shown) [Compound 9, 28-O-(2-Butynoyl)betulin], the melting point was 111 to 113 °C. Also, in data set [8], the IC50 amounted to 16.7 ± 5.5 µg/mL (≈ 32.8 µM). For the same compound, in data set [9], the IC50 amounted to 2.1 ± 0.3 µg/mL (≈ 4.13 µM). For the same compound, the IC50 in the data set on SW707 (human colorectal) [10] worked out at 24.3 ± 8.8 µg/mL (≈ 47.8 µM). Besides, the IC50 in the data set with P388 (mouse leukemia) [11] is 2.9 ± 1.4 µg/mL (≈ 5.7 µM). Also, in [12], the IC50 at 96 h is 17.4 ± 1.1 µg/mL (≈ 34.2 µM). The IC50 in [13] amounted to 24.5 ± 1.9 µg/mL (≈ 48.2 µM).

`C=C(C)[C@@H]1CC[C@]2(COC(=O)CC)CC[C@]3(C)C(CCC4[C@@]5(C)CC[C@H](O)C(C)(C)C5CC[C@]43C)C12` (stereo partly shown) [Compound 3]: in [13], the IC50 was 29.3 ± 3.4 µg/mL (≈ 58.7 µM). For the same compound, in data set [3], the “Cytotoxic activity IC50, T47D” value is 12.1 ± 4.4 µg/mL. Further, the “Cytotoxic activity IC50, CCRF/CEM” value in data set [4] was 8.1 ± 0.9 µg/mL. Also, the “Cytotoxic activity IC50, SW707” value in the data set on SW707 (human colorectal) [5] was 29.2 ± 24.4 µg/mL. In addition, in the data set on P388 (mouse leukemia) [6], the “Cytotoxic activity IC50, P388” value is 3.3 ± 0.8 µg/mL. For the same compound, in data set [7], the “Cytotoxic activity IC50, BALB3T3” value is 32.3 ± 23.0 µg/mL.

The compound `C=C(C)[C@@H]1CC[C@]2(COC(=O)C=CC)CC[C@]3(C)C(CCC4[C@@]5(C)CC[C@H](O)C(C)(C)C5CC[C@]43C)C12` (stereo partly shown) [Compound 8, 28-O-(2-Butenoyl)betulin] came in with a melting point of 182 to 184 °C. Besides, the IC50 in [8] was 29.9 ± 9.3 µg/mL (≈ 58.5 µM). Also, the IC50 in data set [9] was found to be 28 ± 21.6 µg/mL (≈ 54.8 µM). In addition, in the data set with SW707 (human colorectal) [10], the IC50 amounted to 32 ± 4.2 µg/mL (≈ 62.6 µM). Further, in the data set on P388 (mouse leukemia) [11], the IC50 worked out at 5.1 ± 4.9 µg/mL (≈ 9.98 µM). Moreover, the IC50 at 96 h in [12] was 25.6 ± 1.8 µg/mL (≈ 50.1 µM).

The values above are taken from article PMC5219024, “New acetylenic derivatives of betulin and betulone, synthesis and cytotoxic activity” (Medicinal Chemistry Research, 2016).
